According to ChEMBL document CHEMBL1201862, “PubChem BioAssay data set” (2004):
Activity calls are given as the source filed them.

Assays:
[1] = target: Epstein-Barr nuclear antigen 1 (Epstein-Barr virus (strain B95-8) (HHV-4) (Human herpesvirus 4), UniProt P03211); experiment: EBNA-1 inhibitors, dose response, biochemical, fluorescence polarization, 1536-well (AID 2381); set-up: species or system human gammaherpesvirus 4;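 further: fluorescence polarization of a Cy5 DNA probe bound by EBNA-1 protein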
Epstein-Barr nuclear antigen 1, sequence (P03211 whole entry): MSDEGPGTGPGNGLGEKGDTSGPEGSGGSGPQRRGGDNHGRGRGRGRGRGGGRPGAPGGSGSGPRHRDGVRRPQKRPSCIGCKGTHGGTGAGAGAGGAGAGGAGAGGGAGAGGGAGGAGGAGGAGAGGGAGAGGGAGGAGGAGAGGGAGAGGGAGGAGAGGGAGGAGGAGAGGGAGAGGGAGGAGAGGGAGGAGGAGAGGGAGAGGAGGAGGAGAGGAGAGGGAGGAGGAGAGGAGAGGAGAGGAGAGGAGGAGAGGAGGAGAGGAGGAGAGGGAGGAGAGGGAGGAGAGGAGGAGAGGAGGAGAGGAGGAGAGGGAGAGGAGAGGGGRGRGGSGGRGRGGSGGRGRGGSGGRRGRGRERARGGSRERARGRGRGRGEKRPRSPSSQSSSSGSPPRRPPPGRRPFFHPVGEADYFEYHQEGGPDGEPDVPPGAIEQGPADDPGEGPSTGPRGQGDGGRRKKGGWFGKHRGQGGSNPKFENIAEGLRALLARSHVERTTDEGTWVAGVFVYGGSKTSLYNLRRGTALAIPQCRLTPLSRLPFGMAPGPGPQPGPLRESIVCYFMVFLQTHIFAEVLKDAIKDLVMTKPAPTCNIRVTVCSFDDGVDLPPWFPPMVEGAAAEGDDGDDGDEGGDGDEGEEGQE

[2] = target: Lytic switch protein BZLF1 (Epstein-Barr virus (strain B95-8) (HHV-4) (Human herpesvirus 4), UniProt P03206); experiment: EBV ZTA inhibitors, dose response, counter-screen for EBNA-1 inhibitor project, biochemical, fluorescence polarization, Epstein-Barr virus, 1536-well (AID 2377); set-up: species or system human gammaherpesvirus 4;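 further: fluorescence polarization of Cy5-labelled ZRE DNA probe bound by purified Zta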
Lytic switch protein BZLF1, sequence (P03206 whole entry): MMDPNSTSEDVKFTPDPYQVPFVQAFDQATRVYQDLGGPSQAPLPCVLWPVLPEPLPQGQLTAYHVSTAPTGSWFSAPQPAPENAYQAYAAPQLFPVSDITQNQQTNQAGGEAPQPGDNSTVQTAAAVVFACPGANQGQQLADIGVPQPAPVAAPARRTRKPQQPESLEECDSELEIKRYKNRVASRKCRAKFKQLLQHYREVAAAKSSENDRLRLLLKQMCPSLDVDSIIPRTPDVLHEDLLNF

Bcl-2-related protein A1 [3] = target: T1, Bcl-2-related protein A1 (Mus musculus, UniProt Q07440); experiment: Bfl-1 inhibitors blocking BH3 peptide binding, confirmation, biochemical, TR-FRET, mouse Bfl-1 (AID 621);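 further: TR-FRET binding of GST-Bfl-1 to FITC-labelled Bid peptide via terbium antibody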
T1 sequence (Q07440 whole entry): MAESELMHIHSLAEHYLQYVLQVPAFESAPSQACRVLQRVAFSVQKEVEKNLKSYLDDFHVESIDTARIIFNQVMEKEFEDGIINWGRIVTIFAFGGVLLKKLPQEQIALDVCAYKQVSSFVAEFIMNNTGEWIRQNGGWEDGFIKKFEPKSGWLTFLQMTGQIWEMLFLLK

Bcl-2-related protein A1 [4] = target: T1, Bcl-2-related protein A1; experiment: Bfl-1 binding inhibitors, SAR follow-up, biochemical, fluorescence polarization (AID 1070)
[5] = Glucagon-like peptide 1 release potency, NCI-H716 cell line, dose-response, half-maximal inhibitory concentration (AID 1117344); assay type: functional, cell-based
[6] = half-maximal inhibitory concentration for glucagon-like peptide-1 release, STC-1 cell line, dose-response (AID 1117345); assay type: functional, cell-based
Estrogen receptor [7] = target: T2, Estrogen receptor (Homo sapiens, UniProt P03372); experiment: potentiators of ERα–SRC-1 coactivator binding, dose response, biochemical, TR-FRET, ERα LBD (AID 737)
T2 sequence (P03372 whole entry): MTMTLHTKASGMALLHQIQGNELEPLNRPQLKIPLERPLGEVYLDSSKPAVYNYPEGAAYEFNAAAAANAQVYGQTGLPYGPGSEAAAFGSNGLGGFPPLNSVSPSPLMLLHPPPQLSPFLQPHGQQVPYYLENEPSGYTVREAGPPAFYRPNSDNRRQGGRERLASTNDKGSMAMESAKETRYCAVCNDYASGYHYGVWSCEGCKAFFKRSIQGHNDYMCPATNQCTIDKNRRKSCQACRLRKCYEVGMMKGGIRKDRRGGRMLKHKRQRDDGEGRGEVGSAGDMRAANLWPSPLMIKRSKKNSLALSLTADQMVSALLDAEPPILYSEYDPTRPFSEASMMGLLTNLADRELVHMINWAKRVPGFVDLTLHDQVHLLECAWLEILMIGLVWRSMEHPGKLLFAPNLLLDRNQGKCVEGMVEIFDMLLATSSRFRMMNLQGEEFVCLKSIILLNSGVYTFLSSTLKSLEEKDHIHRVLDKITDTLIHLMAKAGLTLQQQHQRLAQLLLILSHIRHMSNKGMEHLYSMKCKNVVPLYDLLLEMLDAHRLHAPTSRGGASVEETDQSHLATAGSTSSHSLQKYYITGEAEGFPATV

cells [8] = experiment: cells
BJ [9] = experiment: cytotoxicity toward BJ-TERT-LT-ST fibroblasts, dose response, cell-based, RAS-independent, luminescence (AID 1935); assay type: functional; details: Homo sapiens;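 further: BJ fibroblasts immortalized with TERT plus LT and ST oncogenes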
BJ [10] = experiment: cells; assay type: functional, cell-based; details: Homo sapiens
BJ [11] = experiment: cytotoxicity toward BJ-TERT fibroblasts, dose response, cell-based, RAS-independent, luminescence (AID 1933); assay type: functional; details: Homo sapiens
BJ [12] = experiment: cytotoxicity toward Ras-transformed BJeLR fibroblasts, dose response, cell-based, alamar blue fluorescence, cherrypicked samples (AID 2631); assay type: functional; details: Homo sapiens;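 further: confirmatory dose-response assay in RAS-dependent BJ fibroblasts engineered with TERT, LT and ST, with cytotoxicity read by fluorescence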
[13] = Luminescent dose response cell-based high throughput screening assay for inhibitors of the Janus kinase 2 mutant JAK2V617F. [Related pubchem assays: 1446 (Primary screen.), 1521 (Confirmation assay.), 1486 (Counter screen.)]; assay type: functional
[14] = cytotoxicity toward DRD oncogenic fibroblasts, dose response, cell-based, non-viral oncogenic, luminescence (AID 1934); assay type: functional; details: Homo sapiens
cells [15] = assay type: functional
[16] = HEp-2 cell cytotoxicity, dose response, cytotoxicity control for RSV inhibitor project, HTS (AID 2410); assay type: functional; details: human respiratory syncytial virus
Estrogen receptor [17] = target: T2, Estrogen receptor
HEK293 [18] = experiment: cells; details: Homo sapiens
HEK293 [19] = experiment: cells; details: Homo sapiens; remark: listed apart in the source
Estrogen receptor beta [20] = target: T3, Estrogen receptor beta (Homo sapiens, UniProt Q92731);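 further: recombinant ER-beta bound to coactivator SRC1 peptide in presence of estradiol agonist; inhibitors block coactivator peptide binding and lower the FRET signal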
T3 sequence (Q92731 whole entry): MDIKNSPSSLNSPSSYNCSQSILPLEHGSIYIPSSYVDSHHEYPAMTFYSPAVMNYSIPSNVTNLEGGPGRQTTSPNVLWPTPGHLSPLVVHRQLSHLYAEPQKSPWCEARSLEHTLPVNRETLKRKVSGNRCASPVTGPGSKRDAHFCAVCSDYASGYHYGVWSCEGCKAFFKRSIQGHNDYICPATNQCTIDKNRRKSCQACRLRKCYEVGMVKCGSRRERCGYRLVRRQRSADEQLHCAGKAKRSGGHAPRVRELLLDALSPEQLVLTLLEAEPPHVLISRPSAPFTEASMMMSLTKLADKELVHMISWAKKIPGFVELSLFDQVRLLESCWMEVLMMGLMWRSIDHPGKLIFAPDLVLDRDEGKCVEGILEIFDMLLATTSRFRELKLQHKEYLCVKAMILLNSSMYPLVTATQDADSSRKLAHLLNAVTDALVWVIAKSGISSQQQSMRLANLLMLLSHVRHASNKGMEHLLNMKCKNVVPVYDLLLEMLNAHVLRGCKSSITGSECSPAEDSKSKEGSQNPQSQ

Estrogen receptor beta [21] = target: T3, Estrogen receptor beta; experiment: ERβ–SRC-3 coactivator interaction inhibitors, confirmation, orthogonal assay, biochemical, ELISA, streptavidin-HRP readout (AID 1060)
[22] = target: FAD-linked sulfhydryl oxidase ALR (Homo sapiens, UniProt P55789); experiment: inhibitors of human ALR sulfhydryl oxidase, dose response, biochemical, H2O2 detection, luminescence, cherry-pick (AID 493248)
FAD-linked sulfhydryl oxidase ALR, sequence (P55789 whole entry): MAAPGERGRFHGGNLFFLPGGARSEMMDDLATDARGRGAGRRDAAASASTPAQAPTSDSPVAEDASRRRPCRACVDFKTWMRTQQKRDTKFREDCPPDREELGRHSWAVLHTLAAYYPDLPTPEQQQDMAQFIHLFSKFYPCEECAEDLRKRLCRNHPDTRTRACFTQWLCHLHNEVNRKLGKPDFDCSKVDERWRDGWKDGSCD

[23] = target: T4, Rac GTPase-activating protein 1 (Homo sapiens, UniProt Q9H0H5); experiment: MgcRacGAP GTPase-activating activity inhibitors, confirmation, biochemical, ADP Hunter fluorescence, primary and confirmatory (AID 624330); assay type: functional
T4 sequence (Q9H0H5 whole entry): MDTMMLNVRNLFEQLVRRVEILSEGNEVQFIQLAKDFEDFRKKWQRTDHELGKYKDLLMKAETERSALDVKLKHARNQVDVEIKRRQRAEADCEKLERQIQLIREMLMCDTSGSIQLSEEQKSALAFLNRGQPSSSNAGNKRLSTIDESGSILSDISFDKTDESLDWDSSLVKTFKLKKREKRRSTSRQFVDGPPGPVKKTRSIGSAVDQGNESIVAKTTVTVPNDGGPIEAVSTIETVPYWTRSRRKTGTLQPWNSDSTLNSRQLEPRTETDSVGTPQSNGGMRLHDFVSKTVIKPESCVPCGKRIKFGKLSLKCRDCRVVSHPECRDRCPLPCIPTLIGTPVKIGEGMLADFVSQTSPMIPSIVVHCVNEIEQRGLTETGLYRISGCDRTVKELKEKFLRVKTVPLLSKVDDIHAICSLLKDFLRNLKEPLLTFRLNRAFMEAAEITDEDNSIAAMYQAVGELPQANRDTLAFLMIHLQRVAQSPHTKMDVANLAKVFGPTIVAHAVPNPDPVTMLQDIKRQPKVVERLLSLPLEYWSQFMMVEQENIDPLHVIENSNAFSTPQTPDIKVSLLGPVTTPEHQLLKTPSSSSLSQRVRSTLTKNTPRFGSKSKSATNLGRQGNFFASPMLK

Cytochrome P450 2C9 = Cytochrome P450 2C9 (Homo sapiens, UniProt P11712)
Cytochrome P450 2C9, sequence (P11712 whole entry): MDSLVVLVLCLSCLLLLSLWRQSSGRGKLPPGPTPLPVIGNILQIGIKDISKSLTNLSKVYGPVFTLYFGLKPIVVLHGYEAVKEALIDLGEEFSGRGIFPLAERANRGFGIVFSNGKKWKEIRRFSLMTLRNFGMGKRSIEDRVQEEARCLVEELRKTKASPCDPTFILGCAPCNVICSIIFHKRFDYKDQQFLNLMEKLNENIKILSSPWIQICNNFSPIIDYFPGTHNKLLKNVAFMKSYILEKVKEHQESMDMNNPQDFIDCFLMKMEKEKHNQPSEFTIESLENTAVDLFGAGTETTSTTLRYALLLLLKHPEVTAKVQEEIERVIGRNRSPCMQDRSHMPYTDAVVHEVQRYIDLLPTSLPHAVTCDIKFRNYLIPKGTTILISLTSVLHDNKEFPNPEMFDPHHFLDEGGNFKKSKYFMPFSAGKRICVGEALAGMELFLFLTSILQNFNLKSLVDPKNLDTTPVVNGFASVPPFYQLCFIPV

[24] = target: Voltage-gated inwardly rectifying potassium channel KCNH2 (Homo sapiens, UniProt Q12809); experiment: hERG protection from proarrhythmic block, potency, dose response, cell-based, thallium flux (AID 2121); assay type: ADME
Voltage-gated inwardly rectifying potassium channel KCNH2, sequence (Q12809 whole entry): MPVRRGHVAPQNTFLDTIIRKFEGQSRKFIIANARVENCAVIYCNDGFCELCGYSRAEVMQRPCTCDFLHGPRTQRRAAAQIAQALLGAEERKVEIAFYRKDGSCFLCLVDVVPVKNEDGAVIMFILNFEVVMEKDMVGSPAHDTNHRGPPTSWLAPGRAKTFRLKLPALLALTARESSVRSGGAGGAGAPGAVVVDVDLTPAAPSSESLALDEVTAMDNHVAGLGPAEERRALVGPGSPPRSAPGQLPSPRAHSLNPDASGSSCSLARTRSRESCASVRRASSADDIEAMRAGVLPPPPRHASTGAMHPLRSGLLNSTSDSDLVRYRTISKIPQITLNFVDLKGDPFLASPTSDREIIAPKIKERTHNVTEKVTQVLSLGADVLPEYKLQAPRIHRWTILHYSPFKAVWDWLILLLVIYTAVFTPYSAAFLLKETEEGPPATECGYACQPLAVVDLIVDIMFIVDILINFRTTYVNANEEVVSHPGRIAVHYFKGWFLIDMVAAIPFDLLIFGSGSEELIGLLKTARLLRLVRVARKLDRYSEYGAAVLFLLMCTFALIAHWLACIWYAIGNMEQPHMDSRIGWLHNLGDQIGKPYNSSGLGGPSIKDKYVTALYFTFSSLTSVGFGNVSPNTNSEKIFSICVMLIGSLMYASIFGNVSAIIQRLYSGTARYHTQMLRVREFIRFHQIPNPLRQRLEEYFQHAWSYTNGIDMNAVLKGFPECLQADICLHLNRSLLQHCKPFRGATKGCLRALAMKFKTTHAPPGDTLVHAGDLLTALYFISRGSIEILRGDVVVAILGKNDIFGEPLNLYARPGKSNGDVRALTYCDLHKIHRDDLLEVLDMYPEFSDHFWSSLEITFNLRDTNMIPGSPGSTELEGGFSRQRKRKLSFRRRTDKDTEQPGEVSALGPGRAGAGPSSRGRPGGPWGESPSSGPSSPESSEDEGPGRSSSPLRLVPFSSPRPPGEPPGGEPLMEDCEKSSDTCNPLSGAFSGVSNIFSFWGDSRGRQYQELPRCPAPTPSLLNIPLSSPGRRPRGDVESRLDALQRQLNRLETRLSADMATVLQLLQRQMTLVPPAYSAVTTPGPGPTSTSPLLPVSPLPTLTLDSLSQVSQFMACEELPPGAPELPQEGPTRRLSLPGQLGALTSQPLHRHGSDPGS

[25] = microbe, parasite or virus in culture; assay type: functional; details: Mycobacterium tuberculosis
[26] = Luminescence Cell-Based Dose Retest to Confirm Inhibitors of Cancer Stem Cells. [Related pubchem assays (depositor defined):AID2717, AID2721]; assay type: functional; details: Homo sapiens
Galanin receptor type 2 = Galanin receptor type 2 (Homo sapiens, UniProt O43603); experiment: Dose Response cell-based high-throughput screening assay to identify antagonists of galanin receptor 2 (GALR2). [Related pubchem assays: 828, 866 ]; assay type: functional
Galanin receptor type 2, sequence (O43603 whole entry): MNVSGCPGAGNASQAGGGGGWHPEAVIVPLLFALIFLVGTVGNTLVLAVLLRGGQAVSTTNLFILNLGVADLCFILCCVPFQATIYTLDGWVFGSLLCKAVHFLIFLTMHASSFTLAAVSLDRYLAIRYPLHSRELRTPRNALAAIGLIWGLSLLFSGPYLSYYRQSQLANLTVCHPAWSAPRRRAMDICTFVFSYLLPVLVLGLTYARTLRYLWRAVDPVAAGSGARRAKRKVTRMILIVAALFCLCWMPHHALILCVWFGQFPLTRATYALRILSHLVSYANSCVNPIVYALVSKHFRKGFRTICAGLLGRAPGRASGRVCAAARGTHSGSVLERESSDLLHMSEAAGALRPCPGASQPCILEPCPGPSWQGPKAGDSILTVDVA

[27] = A Cell Based Secondary Assay To Explore Cytotoxicity of Compounds that Sensitize Mycobacterium Tuberculosis to Beta-Lactam Antibiotics.; assay type: functional
[28] = target: 5-hydroxytryptamine receptor 1A (Homo sapiens, UniProt P08908); assay type: functional
5-hydroxytryptamine receptor 1A, sequence (P08908 whole entry): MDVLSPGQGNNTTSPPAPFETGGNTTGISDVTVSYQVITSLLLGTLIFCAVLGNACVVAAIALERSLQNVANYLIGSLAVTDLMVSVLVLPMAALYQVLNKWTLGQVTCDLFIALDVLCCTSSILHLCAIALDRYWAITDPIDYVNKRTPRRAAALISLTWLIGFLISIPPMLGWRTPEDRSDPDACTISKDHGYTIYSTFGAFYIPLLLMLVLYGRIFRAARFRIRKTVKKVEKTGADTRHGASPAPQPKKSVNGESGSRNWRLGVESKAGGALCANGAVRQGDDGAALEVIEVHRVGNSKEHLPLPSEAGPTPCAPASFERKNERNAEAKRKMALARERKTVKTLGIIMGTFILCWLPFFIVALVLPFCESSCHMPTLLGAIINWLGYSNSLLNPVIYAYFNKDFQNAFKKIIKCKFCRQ

[29] = target: T5, Heat shock factor protein 1 (Mus musculus, UniProt P38532); experiment: HSF1 potentiators in luciferase reporter cells, confirmation, cell-based, NIH3T3, luminescence, dose retest (AID 435004); assay type: functional;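 further: stress induced by proteasome inhibitor MG132 added 30 min after compound; luciferase reporter driven by HSF1 response element in NIH3T3 cells; actives raise luminescence as potentiators of the MG132 stress response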
T5 sequence (P38532 whole entry): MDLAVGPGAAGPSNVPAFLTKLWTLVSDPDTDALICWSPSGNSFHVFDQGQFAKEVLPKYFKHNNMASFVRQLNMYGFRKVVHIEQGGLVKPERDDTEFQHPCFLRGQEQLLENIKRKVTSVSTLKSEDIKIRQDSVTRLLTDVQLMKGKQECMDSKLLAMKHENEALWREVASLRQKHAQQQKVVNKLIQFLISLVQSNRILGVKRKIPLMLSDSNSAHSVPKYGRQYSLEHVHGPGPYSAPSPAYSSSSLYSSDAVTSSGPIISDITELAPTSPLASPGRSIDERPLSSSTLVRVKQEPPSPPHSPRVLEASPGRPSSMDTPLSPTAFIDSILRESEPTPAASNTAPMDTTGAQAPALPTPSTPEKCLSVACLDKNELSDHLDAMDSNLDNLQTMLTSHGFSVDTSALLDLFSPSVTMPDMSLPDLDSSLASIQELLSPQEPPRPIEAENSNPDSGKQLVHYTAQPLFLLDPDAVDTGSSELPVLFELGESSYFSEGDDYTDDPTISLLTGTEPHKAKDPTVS

[30] = Fluorescence-based cell-based high throughput dose response assay for inhibitors of the interaction of nucleotide-binding oligomerization domain containing 2 (NOD2) and the receptor-interacting serine-threonine kinase 2 (RIPK2).; assay type: functional; details: Homo sapiens

COc1ccc(NC(=O)NCc2ccc3c(c2)OCO3)c(OC)c1
IC50 [1]: 18.3 µM (not active) | IC50 [2]: > 111 µM (not active)

Clc1ncccc1-c1nnn(-c2ccccc2)n1
IC50 (Bcl-2-related protein A1 [3]): > 100 µM (not active) | IC50 (Bcl-2-related protein A1 [4]): > 100 µM (not active)

C/C=C(/C(=C/C)c1ccc(O)cc1)c1ccc(O)cc1 [DIENESTROL]
IC50 [5]: > 40 µM (inactive) | IC50 [6]: > 40 µM (inactive) | EC50 (Estrogen receptor [7]): 13.2 µM (active)

COc1ccc(C(C(=O)NC2CCCC2)N(C(=O)c2snc(C(N)=O)c2N)c2cc(C)ccc2OC)cc1OC (stereo not drawn)
IC50 (cells [8]): 6.11 µM (active)

Nc1nc(CCl)nc(N(c2ccccc2)c2ccccc2)n1
EC50 (BJ [9]): 12.1 µM (inconclusive) | EC50 (BJ [10]): 2.65 µM (active) | EC50 (BJ [11]): 0.652 µM (inconclusive) | EC50 (BJ [12]): 0.229 µM (active) | IC50 [13]: 0.721 µM (active) | EC50 [14]: 0.674 µM (active)

CCCCC1CCC(C(=O)Nc2ccc(S(=O)(=O)Nc3nccs3)cc2)CC1 (stereo not drawn)
IC50 (cells [8]): 36.5 µM (active) | IC50 (cells [15]): 14.5 µM (active) | CC50 [16]: 34.3 µM (active)

CCOc1ccccc1N1C(=O)NC(=O)C(CCc2ccncc2)(CCc2ccncc2)C1=O
EC50 (Estrogen receptor [7]): 12.7 µM (active)

O=C(Nc1ccccc1[N+](=O)[O-])C1=C(O)CCn2c1nc1ccccc12
IC50 (Estrogen receptor [17]): 18.6 µM (active) | EC50 (HEK293 [18]): > 59.7 µM (inactive) | EC50 (HEK293 [19]): > 59.7 µM (inactive)

O=C(COC(=O)C1CC2C=CC1C2)NCc1ccco1 (stereo not drawn)
IC50 (Estrogen receptor beta [20]): 7.15 µM (active) | IC50 (Estrogen receptor beta [21]): > 109 µM (not active)

c1ccc(-n2nnc(-c3cnc4ccccc4c3)n2)cc1
IC50 (Bcl-2-related protein A1 [3]): > 100 µM (not active) | IC50 (Bcl-2-related protein A1 [4]): > 100 µM (not active)

CN(c1ccccc1)S(=O)(=O)c1cccc(C(=O)NCCc2ccc(O)c(O)c2)c1
AC50 [22]: 4.37 µM (active) | IC50 [23]: 69.2 µM (active) | IC50 [13]: 7.29 µM (active)

Cn1cc(/C=C2/SC(=O)N(CC(=O)Nc3ccc4c(c3)OCO4)C2=O)c2ccccc21
IC50 [1]: 5.72 µM (active) | IC50 [2]: > 111 µM (not active) | AC50 (Cytochrome P450 2C9): 7.08 µM (inconclusive)

CC1CCCCC1NC(=S)NC(=O)c1sc2ccccc2c1Cl (stereo not drawn)
EC50 [24]: 4.87 µM (active)

O=C(NC(=S)Nc1ccc(N2CCCCC2)c(Cl)c1)c1cccs1
CC50 [25]: > 40 µM (active) | AC50 [26]: 6.16 µM (active) | EC50 [24]: 0.2 µM (active) | CC50 [16]: 17.3 µM (active)

Cc1ccc(S(=O)(=O)NCc2ccncc2)cc1
IC50 (Galanin receptor type 2): > 42 µM (not active)

COc1ccc(NC(=O)CSc2nc(N)c(C(=O)Nc3ccc(N(C)C)cc3)s2)cc1
CC50 [27]: > 40 µM (active)

Cc1ccc(C(=O)c2oc3ccccc3c2NC(=O)c2cc(-c3cc(C)ccc3O)[nH]n2)cc1
CC50 [27]: 7.97 µM (active)

CN1CC=C(c2c[nH]c3ccccc23)CC1
EC50 [28]: 12 µM (not active)

COc1cc(/C=C/[N+](=O)[O-])ccc1O
EC50 (BJ [9]): > 75 µM (inconclusive) | EC50 (BJ [10]): 15.5 µM (active) | EC50 (BJ [11]): 10.6 µM (inconclusive) | IC50 (Galanin receptor type 2): > 4.6 µM (not active) | EC50 (BJ [12]): 4.46 µM (active) | EC50 [29]: 8.18 µM (active) | EC50 [14]: 10.3 µM (active) | IC50 [30]: 4.84 µM (active)
